Source: US20230227492A1 (priority 2020, published 2023)
Where two headings read alike, the source gives them in different places.

Assays:
[1] = Liver S9 Fraction Stability Assay
[2] = system: castrated weanling rats; conditions: rat, in vivo
[3] = molecular target: T1, recombinant human aromatase (Homo sapiens, UniProt P11511); assay: Aromatization by recombinant human aromatase (CYP19+P450 reductase Supersomes); conditions: 10 μM, 37° C.
T1 sequence (P11511 1-503): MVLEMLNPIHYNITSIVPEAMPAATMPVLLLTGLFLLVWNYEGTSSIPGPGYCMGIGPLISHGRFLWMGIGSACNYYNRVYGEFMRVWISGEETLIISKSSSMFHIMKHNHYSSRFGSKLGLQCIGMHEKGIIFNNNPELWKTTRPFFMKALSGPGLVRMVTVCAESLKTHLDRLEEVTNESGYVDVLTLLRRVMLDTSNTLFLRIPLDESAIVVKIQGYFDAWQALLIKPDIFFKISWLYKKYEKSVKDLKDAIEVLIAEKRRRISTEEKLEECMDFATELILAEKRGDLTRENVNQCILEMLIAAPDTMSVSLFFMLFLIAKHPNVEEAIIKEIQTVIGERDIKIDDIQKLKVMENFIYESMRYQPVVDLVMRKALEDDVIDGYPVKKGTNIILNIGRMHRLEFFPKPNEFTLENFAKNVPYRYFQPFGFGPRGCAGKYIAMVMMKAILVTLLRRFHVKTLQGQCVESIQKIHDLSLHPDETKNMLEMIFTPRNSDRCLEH

[4] = molecular target: T2, human PR ligand-binding domain tagged with GST [PR-LBD (GST)] (Homo sapiens, UniProt P06401); assay: PR fluorescence polarization (FP) binding assay; conditions: Fluormone PL Green
T2 construct: purchased Life Technologies (Carlsbad, Calif.)
T2 sequence (P06401 679-913 limits assumed): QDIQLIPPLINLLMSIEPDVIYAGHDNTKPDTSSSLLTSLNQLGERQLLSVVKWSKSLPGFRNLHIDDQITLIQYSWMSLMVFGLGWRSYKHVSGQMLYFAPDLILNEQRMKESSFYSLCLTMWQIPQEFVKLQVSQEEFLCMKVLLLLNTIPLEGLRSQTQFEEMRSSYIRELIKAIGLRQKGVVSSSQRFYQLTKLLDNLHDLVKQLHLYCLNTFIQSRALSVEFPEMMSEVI
Procedure: (§1) Receptor Binding Assay Information—In certain of the following examples, hormone receptor binding assays were used to determine the receptor binding activities of monomeric compound embodiments to androgen (AR), progesterone (PR), estrogen alpha (ERα) or glucocorticoid (GR) receptors. For AR, PR or ERα, the respective receptors are added to novel, tight-binding, selective ligands tagged with a fluorescent molecule, to form a receptor-ligand complex with a high polarization value. This complex is then added to individual monomeric compound embodiments that are contained in well plates. If the monomeric compound binds to the respective receptors, it displaces the fluorescent ligand from the complex, resulting in a low polarization value. In such embodiments, the monomeric compound is characterized as a competitor. […] In such embodiments, the monomeric compound is characterized as a noncompetitor. The shift in polarization value in the presence of the monomeric compound is used to determine the relative affinity of monomeric compound for the receptor.
(§2) For the androgen, progesterone, and estrogen receptor binding assays described herein, the preparation of reagents and test procedures is performed according to the manufacturer's instructions (Life Technologies, Carlsbad, Calif.). The plates are covered to protect the reagents from light and incubated at 20-25° C. for 4-8 hrs. The fluorescence polarization of the samples is measured with 485 nm excitation and 530 nm emission interference filters.
In this example, PR binding activity was assessed using the PR fluorescence polarization (FP) assay, which provides a sensitive and efficient method for high-throughput screening of potential PR ligands. The kit uses human PR ligand-binding domain tagged with GST [PR-LBD (GST)], and a tight-binding, selective fluorescent progesterone ligand (Fluormone™ PL Green) in a homogenous mix-and-read assay format. Progesterone receptor [PR-LBD (GST)] was added to a fluorescent progesterone ligand (Fluormone™ PL Green) to form a PR-LBD (GST)/Fluormone™ PL Green complex resulting in a high polarization value. This complex was then added to individual compound embodiments in 96-well plates. Competitors displaced the fluorescent Fluormone™ PL Green ligand from the PR-LBD (GST)/Fluormone™ PL Green complex, causing the fluorescent ligand to tumble rapidly during its fluorescence lifetime, resulting in a low polarization value. […] The shift in polarization value in the presence of compound embodiments was used to determine relative affinity of compound embodiments for PR-LBD (GST). The fluorescence polarization of the samples was measured with 485 nm excitation and 530 nm emission interference filters. Results for monomeric compound embodiments wherein the R^2 groups is not present (such as to test compound activity after R^2 cleavage) are provided in Table 4.

[5] = molecular target: T3, full-length, untagged, human estrogen receptors (ERα) (Homo sapiens, UniProt P03372); assay: ERα fluorescence polarization (FP) binding assay
T3 construct: insect cell-expressed, full-length, untagged, human estrogen receptors; purchased Life Technologies (Carlsbad, Calif.); host or cells: insect cells
Procedure: as §1
as §2, with “hrs.” for “hrs. The fluorescence polarization of the samples is measured with 485 nm excitation and 530 nm emission interference filters.”
For ERα data, the ERα fluorescence polarization (FP) assay was used, which provides a sensitive and efficient method for high-throughput screening of potential ER ligands. The kit uses insect cell-expressed, full-length, untagged, human estrogen receptors and a tight-binding, fluorescent estrogen ligand (Fluormone™ ES2) in a homogenous mix-and-read assay format. ERα was added to a fluorescent estrogen ligand to form an ERα/Fluormone™ ES2 complex. This complex was then added to individual compound embodiments contained in 96-well plates. […] The change in polarization value in the presence of a compound embodiment was used to determine relative affinity of a compound embodiment for ERα.

[6] = human liver S9, W/O NADPH, 1 μM
[7] = human liver S9, W/O NADPH, 10 μM
[8] = human liver S9, With NADPH, 1 μM
[9] = human liver S9, With NADPH, 10 μM

T3 sequence (P03372 whole entry): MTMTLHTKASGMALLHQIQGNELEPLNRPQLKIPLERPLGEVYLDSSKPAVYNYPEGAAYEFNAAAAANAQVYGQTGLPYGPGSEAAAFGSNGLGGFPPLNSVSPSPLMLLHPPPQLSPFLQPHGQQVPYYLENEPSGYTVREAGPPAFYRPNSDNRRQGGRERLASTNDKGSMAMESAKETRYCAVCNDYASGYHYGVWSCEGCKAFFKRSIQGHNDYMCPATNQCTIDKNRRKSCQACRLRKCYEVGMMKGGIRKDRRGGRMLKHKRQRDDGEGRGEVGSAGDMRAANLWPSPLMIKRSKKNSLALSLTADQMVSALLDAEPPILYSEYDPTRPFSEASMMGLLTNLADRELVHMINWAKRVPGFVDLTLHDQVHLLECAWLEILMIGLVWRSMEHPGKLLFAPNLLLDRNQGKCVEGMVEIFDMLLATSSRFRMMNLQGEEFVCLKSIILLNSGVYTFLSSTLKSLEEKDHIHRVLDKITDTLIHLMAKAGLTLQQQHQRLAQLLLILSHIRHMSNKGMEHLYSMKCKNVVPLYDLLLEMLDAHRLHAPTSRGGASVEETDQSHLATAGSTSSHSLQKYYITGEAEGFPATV

Molecule	% parent molecule remaining after 2 hours at 37° C. [1, 6]	% parent molecule remaining after 2 hours at 37° C. [1, 7]	% parent molecule remaining after 2 hours at 37° C. [1, 8] [%]	% parent molecule remaining after 2 hours at 37° C. [1, 9] [%]	% remaining at 60 min [3] [%]	further results
CCCCCCCCCCCCOC(=O)O[C@H]1CCC2C3CCC4=CC(=O)CC[C@]4(C)C3CC[C@@]21C (some centres unmarked) [CDB-4883, testosterone dodecylcarbonate]	74%	84%	64	85		
C[C@@H]1CC2=CC(=O)CC[C@@H]2C2C1C1CC[C@H](OC(=O)CCNC(=O)CCC(=O)O[C@H]3CCC4C5C([C@@H](C)C[C@@]43C)[C@H]3CCC(=O)C=C3C[C@H]5C)[C@@]1(C)C[C@@H]2C (some centres unmarked) [CDB-4886]						duration of levator ani muscle weight increase (anabolic effects) [2]: sustained until Day 99 (Week 14)
7α-t-Butyl Testosterone [CDB-4919]					92.0	IC50 ([4]; read-out: IC50 (nM) PR binding): 1400 nM; IC50 ([5]; fluorescence polarization, Fluormone ES2, read-out: IC50 (nM) ERα): 10400 nM
CC1CC2=CC(=O)CCC2(C)C2CCC3(C)C(O)CCC3C12 (stereo not drawn) [CDB-4911, 7β-methyl testosterone]					3.4	% remaining at 15 min [3]: 62.3%; % remaining at 30 min [3]: 33.5%; IC50 ([4]; read-out: IC50 (nM) PR binding): 415 nM
C#C[C@]1(OC(=O)OC(C)(C)C)CCC2C3CCC4=CC(=O)CCC4C3CC[C@@]21CC (some centres unmarked) [CDB-4889]	100≤ %	100≤ %	12	56		
CC12CCC(=O)C=C1CC(c1ccccc1)C1C2CCC2(C)C(O)CCC12 (stereo not drawn) [CDB-4920, 7α-Phenyl Testosterone]					63.6	IC50 ([4]; IC50 (nM) PR binding): 463 nM; IC50 [5]: 13500 nM
CC12CCC(=O)C=C1CC(c1ccccc1)C1C2CCC2(C)C(O)CCC12 (stereo not drawn) [CDB-4921, 7β-Phenyl Testosterone]					62.5	IC50 ([4]; read-out: IC50 (nM) PR binding): 787 nM
7-α-methylnortestosterone dodecylcarbonate [CDB-4884]	89%	75%	75	82		
C[C@@H]1CC2=CC(=O)CC[C@@H]2[C@@H]2[C@@H]1[C@@H]1CC[C@H](O)[C@@]1(C)C[C@@H]2C [CDB-1321, dimethandrolone, reference compound]					85.3	
C[C@@H]1CC2=CC(=O)CCC2C2C1C1CC[C@H](OC(=O)CCC(=O)O[C@H]3CCC4C5C(C6CCC(=O)C=C6C[C@H]5C)[C@@H](C)C[C@@]43C)[C@@]1(C)C[C@@H]2C (some centres unmarked) [CDB-4866]						AUC (Ventral Prostate) [2]: 1464 mg*week; duration of levator ani muscle weight increase (anabolic effects) [2]: sustained until Day 99 (Week 14); duration of ventral prostate weight increase (androgenic effects) [2]: sustained until Day 99 (Week 14); ventral prostate gland weights relative to vehicle [2]: increased
DMA linolate [CDB-4895]	51%	62%	55	60		
CCCCCCCCCCCCOC(=O)O[C@H]1CCC2C3CCC4=CC(=O)CCC4=C3[C@@H](C)C[C@@]21C (some centres unmarked) [CDB-4892]	88%	77%	75	82		
CCC1CC2=CC(=O)CCC2(C)C2CCC3(C)C(O)CCC3C12 (stereo not drawn) [CDB-4924, 7β-ethyl testosterone]					0.3	% remaining at 15 min [3]: 58.2%; % remaining at 30 min [3]: 25.4%; IC50 ([4]; read-out: IC50 (nM) PR binding): 842 nM
C[C@]12CCC(=O)C=C1CCC1C2CC[C@@]2(C)C1CC[C@@H]2OC(=O)CCC(=O)O[C@H]1CCC2C3CCC4=CC(=O)CC[C@]4(C)C3CC[C@@]21C (some centres unmarked) [CDB-4877]						AUC (Levator ani muscle) [2]: 2173 mg*week; AUC (Ventral Prostate) [2]: 524.4 mg*week; duration of ventral prostate weight increase (androgenic effects) [2]: sustained until Day 99 (Week 14); ventral prostate gland weights relative to vehicle [2]: increased
CC[C@@H]1CC2=CC(=O)CC[C@]2(C)C2CC[C@@]3(C)C(CC[C@@H]3O)C21 (stereo partly drawn) [CDB-4918, 7α-ethyl testosterone]					0.1	% remaining at 15 min [3]: 33.0%; % remaining at 30 min [3]: 0.2%; IC50 ([4]; IC50 (nM) PR binding): 672 nM; IC50 [5]: 10500 nM
DMA oleate [CDB-4893]	60%	55%	54	51		
C#C[C@]1(OC(=O)CCCCCCCCCCC)CCC2C3CCC4=CC(=O)CCC4C3CC[C@@]21CC (some centres unmarked) [CDB-4880]	78%	86%	54	76		
